Measured values published in ChEMBL document CHEMBL1138374, “Arylsulfonamides as a new class of cannabinoid CB1 receptor ligands: identification of a lead and initial SAR studies” (Bioorg Med Chem Lett, 2007).

Columns and labels:
Cannabinoid receptor 1 [1] = molecular target: T1, Cannabinoid receptor 1 (Homo sapiens, UniProt P21554); experiment: Binding affinity to human recombinant CB1 receptor
Cannabinoid receptor 1 [2] = molecular target: T1, Cannabinoid receptor 1; experiment: Agonist activity at human recombinant CB1 receptor expressed in CHO cells by [35S]GTP-gamma-S binding assay; assay type: functional, cell-based
Cannabinoid receptor 2 = Cannabinoid receptor 2 (Homo sapiens, UniProt P34972); experiment: Binding affinity to CB2 receptor
Sequence of Cannabinoid receptor 2 (P34972 whole entry): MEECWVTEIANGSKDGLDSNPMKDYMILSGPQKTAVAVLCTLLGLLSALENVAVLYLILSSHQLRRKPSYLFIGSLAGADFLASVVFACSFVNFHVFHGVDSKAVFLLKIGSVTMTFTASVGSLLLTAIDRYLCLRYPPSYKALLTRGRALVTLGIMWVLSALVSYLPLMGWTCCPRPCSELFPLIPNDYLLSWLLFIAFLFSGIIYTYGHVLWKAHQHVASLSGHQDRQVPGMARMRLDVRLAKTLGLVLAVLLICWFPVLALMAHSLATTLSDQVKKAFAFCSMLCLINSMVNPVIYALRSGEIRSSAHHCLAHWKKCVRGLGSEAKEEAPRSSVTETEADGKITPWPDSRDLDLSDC

Mus musculus [3] = experiment: Reduction of nociception in NMRI mouse during early phase (0 to 5 mins) at 10 mg/kg, ip by formalin test; assay type: functional; parameters: scale not given: the % may be the effect or the level left; settings: route intraperitoneal
Mus musculus [4] = experiment: Reduction of nociception in NMRI mouse during early phase (0 to 5 mins) at 30 mg/kg, ip by formalin test; assay type: functional; parameters: scale not given: the % may be the effect or the level left; settings: route intraperitoneal
Mus musculus [5] = experiment: Reduction of nociception in NMRI mouse during early phase (0 to 5 mins) at 90 mg/kg, ip by formalin test; assay type: functional; parameters: scale not given: the % may be the effect or the level left; settings: route intraperitoneal
Mus musculus [6] = experiment: Reduction of nociception in NMRI mouse during early phase (0 to 5 mins) at 80 mg/kg, ip by formalin test; assay type: functional; parameters: scale not given: the % may be the effect or the level left; settings: route intraperitoneal
Mus musculus [7] = experiment: Reduction of nociception in NMRI mouse during late phase (10 to 30 mins) at 10 mg/kg, ip by formalin test; assay type: functional; parameters: scale not given: the % may be the effect or the level left; settings: route intraperitoneal
Mus musculus [8] = experiment: Reduction of nociception in NMRI mouse during late phase (10 to 30 mins) at 30 mg/kg, ip by formalin test; assay type: functional; parameters: scale not given: the % may be the effect or the level left; settings: route intraperitoneal
Mus musculus [9] = experiment: Reduction of nociception in NMRI mouse during late phase (10 to 30 mins) at 90 mg/kg, ip by formalin test; assay type: functional; parameters: scale not given: the % may be the effect or the level left; settings: route intraperitoneal
Mus musculus [10] = experiment: Reduction of nociception in NMRI mouse during late phase (10 to 30 mins) at 180 mg/kg, ip by formalin test; assay type: functional; parameters: scale not given: the % may be the effect or the level left; settings: route intraperitoneal
Mus musculus [11] = experiment: Induction of hypokinesia with reduced postural tone NMRI mouse at 180 mg/kg, ip; assay type: organism-based; parameters: dose 180 mg/kg, route intraperitoneal; settings: in vivo
[12] = molecular target: Cannabinoid receptor 1 (Mus musculus) (UniProt P47746); settings: Vas deferens
Sequence of Cannabinoid receptor 1 (Mus musculus) (P47746 whole entry): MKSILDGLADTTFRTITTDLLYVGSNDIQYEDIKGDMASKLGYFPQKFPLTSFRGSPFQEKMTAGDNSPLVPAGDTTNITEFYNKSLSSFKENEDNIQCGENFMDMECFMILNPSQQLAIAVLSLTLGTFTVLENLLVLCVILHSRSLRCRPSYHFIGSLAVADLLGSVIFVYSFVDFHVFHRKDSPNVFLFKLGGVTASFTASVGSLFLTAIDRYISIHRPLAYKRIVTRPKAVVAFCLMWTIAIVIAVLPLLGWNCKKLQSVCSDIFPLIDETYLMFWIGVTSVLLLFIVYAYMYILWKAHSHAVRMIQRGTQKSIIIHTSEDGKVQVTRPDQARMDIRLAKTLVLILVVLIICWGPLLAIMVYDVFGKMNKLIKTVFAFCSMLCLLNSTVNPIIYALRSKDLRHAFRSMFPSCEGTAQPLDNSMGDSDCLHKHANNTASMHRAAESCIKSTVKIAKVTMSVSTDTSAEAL
Description: Agonist activity at CB1 receptor assessed as inhibition of electrically-induced twitch contraction amplitude in mouse vas deferens

[13] = molecular target: Cannabinoid receptor 1 (Mus musculus) (UniProt P47746); settings: Vas deferens; 0.1 uM
Description: Agonist activity at CB1 receptor assessed as inhibition of electrically-induced twitch contraction amplitude in mouse vas deferens at 0.1 uM relative to WIN-55212-2

Mus musculus [14] = experiment: Reduction of nociception in ip dosed NMRI mouse during late phase (10 to 30 mins); assay type: functional
Mus musculus [15] = experiment: Induction of hypokinesia NMRI mouse at 0.3 mg/kg, ip; assay type: organism-based; parameters: dose 0.3 mg/kg, route intraperitoneal; settings: in vivo
Mus musculus [16] = experiment: Induction of hypotonia NMRI mouse at 0.3 mg/kg, ip; assay type: organism-based; parameters: dose 0.3 mg/kg, route intraperitoneal; settings: in vivo

T1 sequence (P21554 whole entry): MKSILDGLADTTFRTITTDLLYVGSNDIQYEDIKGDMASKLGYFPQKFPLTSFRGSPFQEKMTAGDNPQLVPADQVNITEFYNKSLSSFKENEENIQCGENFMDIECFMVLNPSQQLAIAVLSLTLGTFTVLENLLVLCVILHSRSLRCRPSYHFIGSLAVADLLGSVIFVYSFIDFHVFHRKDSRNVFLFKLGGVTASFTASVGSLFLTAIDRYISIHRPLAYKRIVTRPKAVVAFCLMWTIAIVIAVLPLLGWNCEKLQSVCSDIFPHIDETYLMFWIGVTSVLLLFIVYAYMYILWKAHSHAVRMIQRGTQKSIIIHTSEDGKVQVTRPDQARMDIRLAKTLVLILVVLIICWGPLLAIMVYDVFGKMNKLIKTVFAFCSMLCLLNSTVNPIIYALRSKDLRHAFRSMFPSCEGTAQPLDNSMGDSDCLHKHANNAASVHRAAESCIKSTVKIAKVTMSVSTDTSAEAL
Description for Homo sapiens: Selectivity for CB2 receptor over human recombinant CB1 receptor

SMILES	IC50 (Cannabinoid receptor 1 [1])	EC50 (Cannabinoid receptor 1 [2])	other results
O=C(Nc1ccc(Cl)c(S(=O)(=O)N2CCOCC2)c1)c1ccccc1	3980 nM	631 nM	
Cc1ccc(C(=O)Oc2cccc3cccnc23)cc1S(=O)(=O)N1CCCCC1	0.794 nM	10 nM	Ki (Cannabinoid receptor 2): 25.1 nM; Activity (Mus musculus [3]): -1%; Activity (Mus musculus [4]): -1%; Activity (Mus musculus [5]): -53%; Activity (Mus musculus [6]): -54%; Activity (Mus musculus [7]): -15%; Activity (Mus musculus [8]): -50%; Activity (Mus musculus [9]): -71%; Activity (Mus musculus [10]): -59%; Activity (Mus musculus [11]): Toxic; logSI (Homo sapiens): 1; pD2 [12]: 6.42; inhibition [13]: 87.3%
Cc1ccc(C(=O)Oc2cccc3cccnc23)cc1S(=O)(=O)N1CCOCC1	1.26 nM	12.6 nM	
O=C(Nc1ccc(Cl)c(S(=O)(=O)N2CCOCC2)c1)c1cccc2ccccc12	398 nM	794 nM	
O=C(Oc1cccc2cccnc12)c1cccc(S(=O)(=O)N2CCCCC2)c1	15.8 nM	50.1 nM	
Cc1ccc(NC(=O)c2ccc(C)c(S(=O)(=O)N3CCCCC3)c2)nc1	3160 nM	> 10000 nM	
COc1ccccc1NC(=O)c1cccc(S(=O)(=O)N2CCCCC2)c1	> 10000 nM		
Cc1ccc(NC(=O)c2cccc(C#N)c2)cc1S(=O)(=O)N1CCOCC1	1580 nM	5010 nM	
Cc1ccc(C(=O)Nc2cccc3cnccc23)cc1S(=O)(=O)N1CCCCC1	1260 nM	6310 nM	
COc1ccccc1OC(=O)c1ccc(C)c(S(=O)(=O)N2CCOCC2)c1	3160 nM	63.1 nM	
Cc1ccc(C(=O)O)cc1S(=O)(=O)N1CCCCC1	> 10000 nM	> 10000 nM	
COc1ccc(C(=O)Oc2cccc3cccnc23)cc1S(=O)(=O)N1CCOCC1	39.8 nM	398 nM	
Nc1cccc(NC(=O)c2cccc(S(=O)(=O)N3CCCCC3)c2)c1	5010 nM	> 10000 nM	
Cc1ccc(NC(=O)c2ccc(C)c(S(=O)(=O)N3CCCCC3)c2)cc1	7940 nM	> 10000 nM	
Cc1ccc(C(=O)Oc2ccccc2Br)cc1S(=O)(=O)N1CCOCC1	31.6 nM	398 nM	
O=C(Oc1cccc2cccnc12)c1cccc(S(=O)(=O)N2CCCCCC2)c1	50.1 nM	200 nM	
O=C(Oc1cccc2cccnc12)c1cccc(S(=O)(=O)N2CCCC2)c1	158 nM	631 nM	
O=C(Nc1ccccc1O)c1ccc(Cl)c(S(=O)(=O)N2CCCCCC2)c1	200 nM	1260 nM	
Cc1c(C(=O)c2cccc3ccccc23)c2cccc3c2n1[C@H](CN1CCOCC1)CO3 [WIN-552122]			ED50 (Mus musculus [14]): 0.21 mg/kg; Activity (Mus musculus [15]): Toxic; Activity (Mus musculus [16]): Toxic
Cc1ccc(C(=O)Nc2ccccc2)cc1S(=O)(=O)N1CCCCC1	3160 nM	> 10000 nM	
Cc1ccc(C(=O)Nc2cccc(F)c2)cc1S(=O)(=O)N1CCCCC1	1260 nM	> 10000 nM	
Cc1ccc(C(=O)Nc2ccccc2)cc1S(=O)(=O)N1CCCC1	6310 nM	> 10000 nM	
Cc1ccc(NC(=O)c2ccccc2Oc2ccccc2)cc1S(=O)(=O)N1CCOCC1	2000 nM	> 10000 nM	
O=C(Nc1ccc(Cl)c(S(=O)(=O)N2CCOCC2)c1)c1ccccc1Cl	1580 nM	> 10000 nM	
